Results from the supplement of paper PMC10307832.

Tests used:
Assay in all cases: relative viability (nuclei count vs DMSO), 5 days (fraction); higher = more cells survive
[1] = system: A-427
Summary of the method: (§1)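 Relative viability is defined as nuclei in treated wells over nuclei in vehicle wells. Duplicate plates were run and medians reported. Lung cancer cell lines in 1536-well plates were dosed by pin tool one day after seeding, with one drug or with a fixed anchor-drug dose plus five library-drug doses (not always all listed) in √10 steps, and nuclei were counted after 5 days.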

[2] = system: H3255
Summary of the method: as §1

[3] = system: HARA
Summary of the method: as §1

[4] = system: HCC-15
Summary of the method: as §1

[5] = system: HCC-366
Summary of the method: as §1

[6] = system: LXF-289
Summary of the method: as §1

[7] = system: NCI-H1437
Summary of the method: as §1

[8] = system: NCI-H1755
Summary of the method: as §1

[9] = system: NCI-H1793
Summary of the method: as §1

[10] = system: NCI-H1915
Summary of the method: as §1

[11] = system: NCI-H1975
Summary of the method: as §1

[12] = system: NCI-H2009
Summary of the method: as §1

[13] = system: NCI-H2023
Summary of the method: as §1

[14] = system: NCI-H2405
Summary of the method: as §1

[15] = system: NCI-H3122
Summary of the method: as §1

[16] = system: NCI-H441
Summary of the method: as §1

[17] = system: NCI-H460
Summary of the method: as §1

[18] = system: NCI-H596
Summary of the method: as §1

[19] = system: PC-14
Summary of the method: as §1

[20] = system: PC-3 [JPC-3]
Summary of the method: as §1

[21] = system: SK-LU-1
Summary of the method: as §1

[22] = system: UMC-11
Summary of the method: as §1

Compound `O=c1[nH]c2ccccc2n1C1CCN(CCCC(c2ccc(F)cc2)c2ccc(F)cc2)CC1` [Pimozide] + CC1(C)CCC(c2ccc(Cl)cc2)=C(CN2CCN(c3ccc(C(=O)NS(=O)(=O)c4ccc(N[C@H](CCN5CCOCC5)CSc5ccccc5)c(S(=O)(=O)C(F)(F)F)c4)cc3)CC2)C1 [Navitoclax] (partner 0.5 µM) has a relative viability ([1]; first compound 0.08 µM) of 0.965, a relative viability ([1]; first compound 0.253 µM) of 1.01 and a relative viability ([1]; first compound 0.8 µM) of 0.913. For the same compound, the relative viability ([1]; first compound 2.53 µM) was 0.88, the relative viability ([1]; first compound 8 µM) was 0.918 and the relative viability ([2]; first compound 0.253 µM) was 0.555. For the same compound, the relative viability ([2]; first compound 0.8 µM) was 0.549, the relative viability ([2]; first compound 2.53 µM) was 0.551 and the relative viability ([2]; first compound 8 µM) was 0.506. The relative viability ([3]; first compound 0.08 µM) was 1.11, the relative viability ([3]; first compound 0.253 µM) was 1.18 and the relative viability ([3]; first compound 0.8 µM) was 1.1. The relative viability ([3]; first compound 2.53 µM) was 1.12, the relative viability ([3]; first compound 8 µM) was 1.14 and the relative viability ([4]; first compound 0.08 µM) was 0.797. It also gave a relative viability ([4]; first compound 0.253 µM) of 0.724, a relative viability ([4]; first compound 0.8 µM) of 0.66 and a relative viability ([4]; first compound 2.53 µM) of 0.636. The relative viability ([4]; first compound 8 µM) was 0.621, the relative viability ([5]; first compound 0.08 µM) was 1.01 and the relative viability ([5]; first compound 0.253 µM) was 1.12. The relative viability ([5]; first compound 0.8 µM) was 1.02, the relative viability ([5]; first compound 2.53 µM) was 0.986 and the relative viability ([5]; first compound 8 µM) was 0.976. For the same compound, the relative viability ([6]; first compound 0.08 µM) was 0.9, the relative viability ([6]; first compound 0.253 µM) was 0.93 and the relative viability ([6]; first compound 0.8 µM) was 0.91. For the same compound, the relative viability ([6]; first compound 2.53 µM) was 0.896, the relative viability ([6]; first compound 8 µM) was 0.84 and the relative viability ([7]; first compound 0.08 µM) was 1.07. For the same compound, the relative viability ([7]; first compound 0.253 µM) was 1.06, the relative viability ([7]; first compound 0.8 µM) was 1.06 and the relative viability ([7]; first compound 2.53 µM) was 0.993. For the same compound, the relative viability ([7]; first compound 8 µM) was 0.81, the relative viability ([8]; first compound 0.08 µM) was 0.963 and the relative viability ([8]; first compound 0.253 µM) was 0.941. For the same compound, the relative viability ([8]; first compound 0.8 µM) was 0.969, the relative viability ([8]; first compound 2.53 µM) was 0.882 and the relative viability ([8]; first compound 8 µM) was 0.771. For the same compound, the relative viability ([9]; first compound 0.08 µM) was 0.532, the relative viability ([9]; first compound 0.253 µM) was 0.485 and the relative viability ([9]; first compound 0.8 µM) was 0.389. It also gave a relative viability ([9]; first compound 2.53 µM) of 0.48, a relative viability ([9]; first compound 8 µM) of 0.494 and a relative viability ([10]; first compound 0.08 µM) of 0.784. It also gave a relative viability ([10]; first compound 0.253 µM) of 0.705, a relative viability ([10]; first compound 0.8 µM) of 0.777 and a relative viability ([10]; first compound 2.53 µM) of 0.777. It also gave a relative viability ([10]; first compound 8 µM) of 0.786, a relative viability ([11]; first compound 0.08 µM) of 1.22 and a relative viability ([11]; first compound 0.253 µM) of 1.06. For the same compound, the relative viability ([11]; first compound 0.8 µM) was 1.08, the relative viability ([11]; first compound 2.53 µM) was 1.16 and the relative viability ([11]; first compound 8 µM) was 0.992. The relative viability ([12]; first compound 0.08 µM) was 1.2, the relative viability ([12]; first compound 0.253 µM) was 1.14 and the relative viability ([12]; first compound 0.8 µM) was 1.13. It also gave a relative viability ([12]; first compound 2.53 µM) of 1.2, a relative viability ([12]; first compound 8 µM) of 1.01 and a relative viability ([13]; first compound 0.08 µM) of 1.03. The relative viability ([13]; first compound 0.253 µM) was 1.03, the relative viability ([13]; first compound 0.8 µM) was 0.988 and the relative viability ([13]; first compound 2.53 µM) was 0.957. It also gave a relative viability ([13]; first compound 8 µM) of 0.832, a relative viability ([14]; first compound 0.08 µM) of 0.795 and a relative viability ([14]; first compound 0.253 µM) of 0.716. It also gave a relative viability ([14]; first compound 0.8 µM) of 0.89, a relative viability ([14]; first compound 2.53 µM) of 0.801 and a relative viability ([14]; first compound 8 µM) of 0.637. The relative viability ([15]; first compound 0.08 µM) was 0.987, the relative viability ([15]; first compound 0.253 µM) was 1.06 and the relative viability ([15]; first compound 0.8 µM) was 1.04. For the same compound, the relative viability ([15]; first compound 2.53 µM) was 0.982, the relative viability ([15]; first compound 8 µM) was 0.957 and the relative viability ([16]; first compound 0.08 µM) was 0.685. The relative viability ([16]; first compound 0.253 µM) was 0.697, the relative viability ([16]; first compound 0.8 µM) was 0.75 and the relative viability ([16]; first compound 2.53 µM) was 0.487. It also gave a relative viability ([16]; first compound 8 µM) of 0.346, a relative viability ([17]; first compound 0.08 µM) of 1.19 and a relative viability ([17]; first compound 0.253 µM) of 1.12. It also gave a relative viability ([17]; first compound 0.8 µM) of 1.06, a relative viability ([17]; first compound 2.53 µM) of 1.06 and a relative viability ([17]; first compound 8 µM) of 0.957. It also gave a relative viability ([18]; first compound 0.08 µM) of 0.92, a relative viability ([18]; first compound 0.253 µM) of 0.963 and a relative viability ([18]; first compound 0.8 µM) of 0.94. It also gave a relative viability ([18]; first compound 2.53 µM) of 0.677, a relative viability ([18]; first compound 8 µM) of 0.9 and a relative viability ([19]; first compound 0.08 µM) of 1.04. For the same compound, the relative viability ([19]; first compound 0.253 µM) was 1, the relative viability ([19]; first compound 0.8 µM) was 0.99 and the relative viability ([19]; first compound 2.53 µM) was 1.09. For the same compound, the relative viability ([19]; first compound 8 µM) was 0.967, the relative viability ([20]; first compound 0.253 µM) was 0.73 and the relative viability ([20]; first compound 0.8 µM) was 0.798. The relative viability ([20]; first compound 2.53 µM) was 0.761, the relative viability ([20]; first compound 8 µM) was 0.732 and the relative viability ([21]; first compound 0.08 µM) was 1.09. The relative viability ([21]; first compound 0.253 µM) was 0.815, the relative viability ([21]; first compound 0.8 µM) was 0.804 and the relative viability ([21]; first compound 2.53 µM) was 0.76. For the same compound, the relative viability ([21]; first compound 8 µM) was 0.809, the relative viability ([22]; first compound 0.08 µM) was 0.33 and the relative viability ([22]; first compound 0.253 µM) was 0.318. The relative viability ([22]; first compound 0.8 µM) was 0.293, the relative viability ([22]; first compound 2.53 µM) was 0.286 and the relative viability ([22]; first compound 8 µM) was 0.239.
